What was measured:
[1] = system: gonadotrophin (LH and FSH) secretion; settings: immediate release doses of 1 and 10 mg; cited from earlier work
[2] = original immediate release (IR) formulation; cited from earlier work
[3] = human, in vivo
Excerpt: PK results for onapristone are available for 52 patients from the a first study (ARN-AR18-CT-101) (Table 1). Variability for onapristone PK is moderate and greater for the IR versus the ER formulation. Onapristone Cmax and AUC values for the ER form are proportional to administered dose (FIGS. 1 and 2). Based on observed mean AUC values, oral bioavailability for the ER versus the IR formulation is approximately 50% (FIG. 24). A later Tmax value for the ER form results in somewhat lower dose-corrected Cmax values for the ER form compared to the IR form. Steady state is attained before day 8 with a mean t % of 7.5 hrs.
Table 1 compares descriptive statistics for the primary onapristone pharmacokinetic exposure parameters following single oral doses from 10 to 50 mg of extended-release onapristone compared to that from 100 mg immediate-release onapristone (Study ARN-AR18-CT-101). […]
Blood samples were collected at 0, 1, 2, 3, 4, 6, 8, 12 (before next BID dose), and 24 (before next dose—for 100 mg IR only) hours post-ONA, as well as hour 0 on days 8, 29 and 57 (just before drug intake). Plasma concentrations of ONA, mono-demethylated onapristone (M1) and other metabolites in plasma and urine were analyzed with a validated ultra-performance liquid chromatography with tandem mass spectrometry detection (UPLC-MS/MS) assay. […]

Steady state attained [3]: < 8 days
mean t % [3]: 7.5 h
SMILES: CN(C)c1ccc([C@H]2C[C@]3(C)[C@@H](CC[C@]3(O)CCCO)[C@@H]3CCC4=CC(=O)CCC4=C32)cc1 [onapristone, (8S,11R,13R,14S,17S)-11-[4-(dimethylamino)phenyl]-17-hydroxy-17-(3-hydroxypropyl)-13-methyl-1,2,6,7,8,11,12,14,15,16-decahydrocyclopenta[a]phenanthren-3-one]
effect on gonadotrophin (LH, FSH) secretion [1]: dose-dependent effect of onapristone on suppression of gonadotrophin
tolerability [2]: well-tolerated with the exception of abnormalities in liver function tests
